# Assay results from patent US7361769B2, “Heterocyclyls as selective melanin concentrating hormone receptor antagonists for the treatment of obesity and related disorders” (Schering Corporation, priority 2004, dated 2008).
# pKi: −log10 of the molar value. Where two headings read alike, the source gives them in different places.
# What was measured:
# MCH receptor = target: T1, MCH receptor (Homo sapiens, UniProt Q99705); assay: MCH receptor binding assay ([125I]-MCH, SPA); settings: membranes from CHO cells expressing the MCH receptor
# T1 construct: expressed in transfected cells; host or cells: CHO cells (membrane preparation)
# Method: MCH Receptor Binding Assay:
# Membranes from CHO cells expressing the MCH receptor were prepared by lysing cells with 5 mM HEPES for 15 min at 4 C. Cell lysates were centrifuged ([…], 15 min) and the pellet was re-suspended in 5 mM HEPES. For each 96-well plate (Microlite, Dynex Technologies), 1 mg of cell membranes were incubated with 10 mg of wheat germ agglutinin SPA beads (Amersham) for 5 min at 4 C in a volume of 10 ml of binding buffer (25 mM HEPES, 10 mM MGCl2, 10 mM NaCl, 5 mM MnCl2, 0.1% BSA). The membrane/bead mixture was centrifuged (1500×g, 3.5 min), the supernatant was aspirated, and the pellet was resuspended in 10 ml binding buffer. The centrifugation, aspiration and resuspension were then repeated. The membrane/bead mixture (100 μl) was then added to 96-well plates containing 50 μl of 500 pM [^125I]-MCH (NEN) and […] of the appropriate concentration of compound (4× the desired final concentration). Nonspecific binding was determined by including 1 μM MCH in the binding reaction. The binding reaction was incubated at room temperature for 2 h. Plates were then analyzed in a TOPCOUNT microplate scintillation counter (Packard). Data was analyzed and Ki values were determined using GraphPad Prism.
# hERG channels = target: T2, hERG channels (Homo sapiens, UniProt Q12809); assay: Herg-Rb two phase screen (rubidium efflux); assay type: cell-based; settings: CHO cells expressing hERG, relative to complete block with 10 μM dofetilide; for herg-Rb 1.5 μg/mL (%): test article at 1.5 μg/ml; for herg-Rb 5 μg/mL (%): test article at 5 μg/ml
# T2 construct: expressed in transfected cells
# Method: Herg-Rb data (μg/mL) (%) was determined by the following two phase screen. The first phase is a cell-handling phase in which cells are loaded with rubidium, drugs are added and efflux initiated by KCl-depolarization. The second phase is measurement of rubidium content in cell supernatants that are collected at the end of the cell-handling phase. CHO cells expressing hERG in a stable manner are used for these studies. Cells are plated into 96-well dishes one day prior to study. After overnight culture, the normal tissue culture medium is removed and cells are loaded with rubidium for 3 hours in a HEPES-buffered physiological saline solution containing 5 mM rubidium chloride in place of potassium chloride. During the final 30 minutes of rubidium loading cells are pre-equilibrated with test articles at 1.5 μg/ml and 5 μg/ml. Cells are then washed with rubidium-free HEPES buffered physiological saline solution containing 5 mM KCl to remove all extracellular rubidium. The final step of the cell handling phase is to depolarize the cells in HEPES buffered physiological saline containing 50 mM KCl. This opens hERG channels and permits efflux of rubidium. Supernatants are collected after 5 minutes and rubidium content is measured using a flame atomic absorbance spectrometer with a robot for sampling from 96-well plates (ICR-8000, Aurora Biomed Inc., Vancouver, British Columbia). In cases where the channel is blocked the amount of rubidium efflux is reduced. Drug effects are calculated based on the difference between wells with no added compound and wells in which there is complete block of hERG channels with a well-known positive standard (10 μM dofetilide).
# T2 sequence (Q12809 whole entry): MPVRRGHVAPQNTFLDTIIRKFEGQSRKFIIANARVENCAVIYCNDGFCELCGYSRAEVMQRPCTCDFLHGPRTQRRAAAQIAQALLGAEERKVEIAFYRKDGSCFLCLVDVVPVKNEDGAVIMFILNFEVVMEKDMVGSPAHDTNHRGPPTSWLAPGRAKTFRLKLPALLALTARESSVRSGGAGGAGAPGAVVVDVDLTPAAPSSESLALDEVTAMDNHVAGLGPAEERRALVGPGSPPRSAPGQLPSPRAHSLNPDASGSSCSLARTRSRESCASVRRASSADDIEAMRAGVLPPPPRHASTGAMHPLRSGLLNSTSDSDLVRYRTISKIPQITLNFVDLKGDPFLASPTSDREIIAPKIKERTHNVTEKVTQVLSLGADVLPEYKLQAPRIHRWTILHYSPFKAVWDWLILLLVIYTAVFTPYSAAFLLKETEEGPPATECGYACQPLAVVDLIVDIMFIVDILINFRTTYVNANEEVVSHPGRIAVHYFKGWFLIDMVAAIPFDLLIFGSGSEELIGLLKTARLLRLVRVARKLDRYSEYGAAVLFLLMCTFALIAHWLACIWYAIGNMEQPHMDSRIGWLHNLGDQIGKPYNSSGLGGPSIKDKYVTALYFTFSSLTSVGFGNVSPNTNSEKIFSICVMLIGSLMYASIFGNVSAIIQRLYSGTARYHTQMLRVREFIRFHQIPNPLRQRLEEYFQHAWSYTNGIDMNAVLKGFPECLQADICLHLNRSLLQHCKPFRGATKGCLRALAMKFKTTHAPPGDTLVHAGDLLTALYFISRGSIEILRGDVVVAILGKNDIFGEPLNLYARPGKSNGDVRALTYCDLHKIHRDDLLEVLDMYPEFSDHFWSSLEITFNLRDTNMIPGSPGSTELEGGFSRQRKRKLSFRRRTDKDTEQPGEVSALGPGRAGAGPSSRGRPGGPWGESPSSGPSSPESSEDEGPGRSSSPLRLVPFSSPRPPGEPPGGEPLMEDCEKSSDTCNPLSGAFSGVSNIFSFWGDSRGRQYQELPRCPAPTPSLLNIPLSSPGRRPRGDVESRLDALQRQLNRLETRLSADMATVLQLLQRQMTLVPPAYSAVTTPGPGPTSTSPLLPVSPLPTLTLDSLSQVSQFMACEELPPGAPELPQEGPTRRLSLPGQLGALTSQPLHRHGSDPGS
# T1 sequence (Q99705 whole entry): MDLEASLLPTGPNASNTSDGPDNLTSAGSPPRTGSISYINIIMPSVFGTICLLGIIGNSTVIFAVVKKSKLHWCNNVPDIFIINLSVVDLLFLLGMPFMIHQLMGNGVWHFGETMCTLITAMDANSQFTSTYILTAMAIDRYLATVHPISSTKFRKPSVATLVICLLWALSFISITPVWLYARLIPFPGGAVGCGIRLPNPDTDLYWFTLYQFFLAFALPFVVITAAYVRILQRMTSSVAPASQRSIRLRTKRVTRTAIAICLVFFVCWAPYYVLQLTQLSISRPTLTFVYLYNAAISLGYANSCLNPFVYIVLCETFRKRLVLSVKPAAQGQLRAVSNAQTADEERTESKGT
pKi (MCH receptor; read-out: Class (Ki)),pKi (MCH receptor; read-out: Ki),SMILES,herg-Rb 1.5 μg/mL (%) (hERG channels),herg-Rb 5 μg/mL (%) (hERG channels)
> 7.52,,NCc1cnc(C2=CCC(N(CCN3CCCC3)C(=O)Nc3ccc(F)c(Cl)c3)CC2)s1 (centres unmarked) [Example 11],9%,14%
< 7.00,,NCc1ncc([C@]23CC[C@@H](N(CCN4CCCC4)C(=O)Nc4ccc(F)c(C(F)(F)F)c4)[C@H]2C3)s1 [Example 12],13%,16%
7.00 to 7.52,,NCc1ncc([C@]23CC[C@@H](N(CCN4CC[C@H](O)C4)C(=O)Nc4ccc(F)c(C(F)(F)F)c4)[C@H]2C3)s1 [Example 13],13%,8%
< 7.00,,NCc1ncc([C@@]23C[C@H](N(CCCN4CC[C@H](O)C4)C(=O)Nc4ccc(F)c(C(F)(F)F)c4)C[C@@H]2C3)s1 [Example 14],,
7.00 to 7.52,,NCc1ncc([C@]23CC[C@@H](N(CCCN4CC[C@H](O)C4)C(=O)Nc4ccc(F)c(C(F)(F)F)c4)C2C3)s1 (some centres unmarked) [Example 15],−4%,−4%
> 7.52,,C[C@@H]1CN(CCCN(C(=O)Nc2ccc(F)c(C(F)(F)F)c2)[C@@H]2CC[C@]3(c4cnc(CN)s4)CC23)[C@@H](C)CN1 (some centres unmarked) [Example 16],−11%,−8%
7.00 to 7.52,,NCc1ncc([C@]23CC[C@@H](N(CCCN4CC5CC4CN5)C(=O)Nc4ccc(F)c(C(F)(F)F)c4)C2C3)s1 (some centres unmarked) [Example 17],0%,14%
> 7.52,,NCc1ncc([C@]23CC[C@@H](N(CCCN4CC[C@@H](O)C4)C(=O)Nc4ccc(F)c(C(F)(F)F)c4)C2C3)s1 (some centres unmarked) [Example 18],−5%,−4%
> 7.52,,C[C@@H]1CN(CCCN(C(=O)Nc2cc(Cl)nc(Cl)c2)[C@@H]2CC[C@]3(c4cnc(CN)s4)CC23)[C@@H](C)CN1 (some centres unmarked) [Example 19],−10%,3%
< 7.00,,NCc1ncc([C@@]23CC[C@H](N(CCCN4CC[C@@H](O)C4)C(=O)Nc4ccc(F)c(C(F)(F)F)c4)[C@@H]2C3)s1 [Example 20],,
> 7.52,,NCc1ncc([C@]23CC[C@@H](N(CCCN4CC[C@@H](O)C4)C(=O)Nc4ccc(F)c(C(F)(F)F)c4)[C@H]2C3)s1 [Example 21],,

# Second part, the compound before the results:
SMILES,pKi (MCH receptor; read-out: Class (Ki)),pKi (MCH receptor; read-out: Ki),herg-Rb 1.5 μg/mL (%) (hERG channels),herg-Rb 5 μg/mL (%) (hERG channels)
NCc1ccc(C2=CCC(N(CCN3CCCC3)C(=O)Nc3ccc(F)c(Cl)c3)CC2)s1 (centres unmarked) [Example 1],> 7.52,8.10,22%,26%
CN(C)Cc1ccc(C2=CCC(N(CCN3CCCC3)C(=O)Nc3ccc(F)c(Cl)c3)CC2)s1 (centres unmarked) [Example 2],< 7.00,,,
O=C(Nc1ccc(F)c(Cl)c1)N(CCN1CCCC1)C1CC=C(c2ccc(CN3CCC3)s2)CC1 (centres unmarked) [Example 3],< 7.00,,−1%,15%
O=C(Nc1ccc(F)c(Cl)c1)N(CCN1CCCC1)C1CC=C(c2ccc(CN3CCCC3)s2)CC1 (centres unmarked) [Example 4],< 7.00,,−1%,20%
O=C(Nc1ccc(F)c(Cl)c1)N(CCN1CCCC1)C1CC=C(c2ccc(CN3CC[C@H](O)C3)s2)CC1 (some centres unmarked) [Example 5],7.00 to 7.52,,0%,6%
CNCc1ccc(C2=CCC(N(CCN3CCCC3)C(=O)Nc3ccc(F)c(Cl)c3)CC2)s1 (centres unmarked) [Example 6],> 7.52,,,
NCc1ncc(C2=CCC(N(CCN3CCCC3)C(=O)Nc3ccc(F)c(Cl)c3)CC2)s1 (centres unmarked) [Example 7],> 7.52,,−1%,10%
CN(C)Cc1ncc(C2=CCC(N(CCN3CCCC3)C(=O)Nc3ccc(F)c(C(F)(F)F)c3)CC2)s1 (centres unmarked) [Example 8],< 7.00,,,
CN(C)Cc1ncc(C2=CCC(N(CCN3CCCC3)C(=O)Nc3ccc(F)c(Cl)c3)CC2)s1 (centres unmarked) [Example 9],< 7.00,,,
NCc1ncc(C2=CCC(N(CCN3CCCC3)C(=O)Nc3ccc(F)c(C(F)(F)F)c3)CC2)s1 (centres unmarked) [Example 10],> 7.52,,9%,26%
